Reference: US6723567B1, “Screening method for apoptosis and necrosis” (Aponetics Ltd., priority 1998, dated 2004)
“Also recorded” adds a separate entry of the source. Numbered stars: 1 amine (or outer) side, 2 acyl side, 3 side chain; on linkers, the order of the positions; unused ones are H or OH. Bridge positions count the residues as written; N and C are the ends. Square brackets hold non-standard residues; d marks the D form. Peptide text beside a SMILES is read from it. I, II: the chains in the order shown. Actinocin(9to1) = Cc1c2oc3c(C)ccc(C(=O)[*:1])c3nc-2c(C(=O)[*:2])c(N)c1=O; NMeV = CN[C@H](C(=O)O)C(C)C; Sar = CNCC(=O)O

What was measured:
A20GFP = test: ActD/CHX interference with the GFP apoptosis assay in A20GFP; assay type: cell-based, murine; conditions: for inhibition of sFasL SN induced apoptosis: 5 μg/ml ActD and/or 10 μg/ml CHX with 100 μl sFasL SN, 10 hours; for fluorescence intensity / fluorescing capacity of A20GFP: 5 μg/ml ActD and/or 10 μg/ml CHX, 10 hours at 37° C.
Protocol: To find out whether the fluorescence of A20GFP and the GFP apoptosis assay as described in example 7 is dependent on the de novo transcription and protein synthesis, Act D (pharmacy of the University Hospital, Basel), a RNA synthesis inhibitor, and Cycloheximide (Sigma), a protein synthesis inhibitor, were tested in our experimental protocol. After washing A20GFP cells with PBS, 250000 cells were aliquoted in FACS-tubes and incubated with:
a) Tube 1 (control): 500 μl medium complete (MC)
b) Tube 2: 100 μl sFasL SN and 400 μl MC
c) Tube 3: 500 μl MC and 5 μg/ml ActD
d) Tube 4: 400 μl MC, 100 μl sFasL SN, 5 μg/ml ActD
e) Tube 5: 500 μl MC and 10 μg/ml CHX
f) Tube 6: 400 μl MC, 100 μl sFasL SN and 10 μg/ml CHX
g) Tube 7: 500 μl MC, 5 μg/ml Act D and 10 μg/ml CHX
h) Tube 8: 400 μl MC, 100 μl sFasL SN, 5 μg/ml Act D and 10 μg/ml CHX
Tubes 1-8 (a-h) were incubated for 10 hours at 37° C. The fluorescing status of the cells was assayed at 10 hours post treatment.

JurkatGFP = test: Apoptosis assay: induction of apoptosis in JurkatGFP by recombinant human TRAIL; assay type: cell-based
Protocol: This apoptosis assay has been performed with recombinant human TRAIL, a known cell death inducer in Jurkat cells. 250,000 JurkatGFP cells were aliquoted in two different FACS-tubes.
Tube 1: (control): cells were incubated with 500 μl RPMI medium,
Tube 2: cells were incubated with 25 μl recombinant human TRAIL and 475 μl RPMI medium.
Both tubes were incubated for 18 hours at 37° C. After incubation the test tubes were immediately measured without prior washing.

Cc1c2oc3c(C)ccc(C(=O)N[C@@H]4C(=O)N[C@H](C(C)C)C(=O)N5CCC[C@H]5C(=O)N(C)CC(=O)N(C)[C@@H](C(C)C)C(=O)O[C@@H]4C)c3nc-2c(C(=O)N[C@@H]2C(=O)N[C@H](C(C)C)C(=O)N3CCC[C@H]3C(=O)N(C)CC(=O)N(C)[C@@H](C(C)C)C(=O)O[C@@H]2C)c(N)c1=O [ActD, Actinomycin D] (I: T[dV]P[Sar][NMeV] / II: T[dV]P[Sar][NMeV]; ester I:1-I:C, II:1-II:C; linker I:N-II:N via Actinocin(9to1))
inhibition of sFasL SN induced apoptosis (A20GFP): nor do they inhibit sFasL SN induced apoptosis
fluorescence intensity / fluorescing capacity of A20GFP (A20GFP): do not substantially interfere with the fluorescing capacity of A20GFP; also recorded: Neither a reduction of GFP-associated fluorescence

C[C@@H]1C[C@@H]([C@H](O)CC2CC(=O)NC(=O)C2)C(=O)[C@@H](C)C1 [CHX, Cycloheximide]
inhibition of sFasL SN induced apoptosis (A20GFP): nor do they inhibit sFasL SN induced apoptosis
fluorescence intensity / fluorescing capacity of A20GFP (A20GFP): do not substantially interfere with the fluorescing capacity of A20GFP; also recorded: Neither a reduction of GFP-associated fluorescence

B1: recombinant human TRAIL: TNF-related apoptosis inducing ligand, a known cell death inducer in Jurkat cells (protein, UniProt P50591 1-281, looked up)
Tumor necrosis factor ligand …: MAMMEVQGGPSLGQTCVLIVIFTVLLQSLCVAVTYVYFTNELKQMQDKYSKSGIACFLKEDDSYWDPNDEESMNSPCWQVKWQLRQLVRKMILRTSEETISTVQEKQQNISPLVRERGPQRVAAHITGTRGRSNTLSSPNSKNEKALGRKINSWESSRSGHSFLSNLHLRNGELVIHEKGFYYIYSQTYFRFQEEIKENTKNDKQMVQYIYKYTSYPDPILLMKSARNSCWSKDAEYGLYSIYQGGIFELKENDRIFVSVTNEHLIDMDHEASFFGAFLVG
induction of apoptosis in JurkatGFP (JurkatGFP; 25 μl recombinant human TRAIL in 500 μl, 18 hours at 37° C.): induced apoptosis in JurkatGFP cells
dose dependence of apoptosis induction in JurkatGFP (JurkatGFP; data not shown): dose dependent manner
